Structures are written as SMILES. Marks after values point to notes of the source that are not given here.

The test system of assay [1] is Zea mays immature embryos. The experiment in a line: Agrobacterium-mediated transformation of maize immature embryos, additives in the co-cultivation medium. The format is cell-based. The following applies: for Average TE (%) (transformation efficiency): L-cysteine added (+) to co-cultivation medium, split-cob design, drop inoculation. As for the experimental part:
Adjust pH media to 5.8 with 1 M NaOH. Weigh 4 g Sigma Purified Agar per bottle (8 g/L) and dispense 500 mL media per bottle, autoclave. When cooled add AgNO3 (stock at 15 mM) to a final concentration of 15 μM and L-cysteine (stock at 150 mg/ml) to a final concentration 300 mg/l. Pour into 100×20 mm Petri plates. Medium containing acetosyringone should be used freshly without long term storage.
Excised immature embryos are directly put on the co-cultivation medium (medium A-3) with the flat side down (scutellum upward). Each plate (20×100 mm plate) can hold up to 100 immature embryos. Put 5 μl of diluted Agrobacterium cell suspension to each immature embryo with a repeat pipettor. Remove excess moisture covering immature embryos by leaving the plate cover open in the hood for about 15 min. Seal the plate with 3M micropore tape and wrap with aluminum foil. Incubate the plate in the dark at 22° C. for 2 to 3 days. Take 3-5 immature embryos for GUS staining if a GUS construct is used to assess transient GUS expression.

The test system of a further assay is XI12 mutant maize lines. The conditions noted are these: cited from earlier work.
In the next assay the test system is Maize XA17 mutants. The following applies: cited from earlier work.
Where [2] appears, read: addition to co-cultivation medium, BPS553×(HiIIA×A188) genotypes.

Turning to `N[C@@H](CS)C(=O)O` [L-Cysteine], the “Effect on transformation efficiency” value in assay [1] (setting [2]) is on record as “further enhances transformation efficiency”; in assay [1] (presence in the co-cultivation medium), “significantly increasing transformation efficiency”. For the same compound, the “Average TE (%) (transformation efficiency)” value in assay [1] (hybrid BPS553x(HillAxA188), 20 experiments) was 32.2* %; in assay [1] (inbred BPS553, 27 experiments), 9.6* %.
Turning to `CC(C)C1(C)N=C(c2nc3ccccc3cc2C(=O)O)NC1=O` (stereo not drawn) [imazaquin], the “Resistance or sensitivity of the plants to the herbicide” value with XI12 mutant maize lines is reported as “sensitive”. Moreover, in the assay with Maize XA17 mutants, the “Resistance or tolerance of the plants to the herbicide” value is reported as “highly resistant”.
Regarding `CCc1cnc(C2=NC(C)(C(C)C)C(=O)N2)c(C(=O)O)c1` (stereo not drawn) [imazethapyr], the “Resistance or sensitivity of the plants to the herbicide” value in the assay with XI12 mutant maize lines is “highly resistant”. For the same compound, in the assay with Maize XA17 mutants, the “Resistance or tolerance of the plants to the herbicide” value is on record as “highly resistant”.
As to `O=[N+]([O-])[O-].[Ag+]` [silver nitrate], the “Effect on transformation efficiency” value in assay [1] (setting [2]) is “further enhances transformation efficiency”.

The values are drawn from US7994399B2, “Methods for the production of stably transformed, fertile Zea mays plants” (BASF Plant Science GmbH, priority 2005, dated 2011).
